The values that follow come from patent US20110003382A1, “USE OF CORTICOSTERONE FOR INCREASING EGG ANTIBODY” (WISCONSIN ALUMNI RESEARCH FOUNDATION, priority 2009, published 2011).

SMILES strings stand for the structures.

One series concerns mice. To be noted: exogenous corticosterone; cited from earlier work.
For series [1] the following is noted: after 1 day of CORT at 20 mg/kg diet in drinking water; cited from earlier work.
Series [2] deals with Single Comb White Leghorn hens. As to the kind of experiment: Anti-PLA2 antibody titer in egg yolk of immunized hens by ELISA. Type of series: in vivo. The source says: In all Examples, Single Comb White Leghorn hens (SCWL) used were transported as pullets (18- to 22-weeks of age) from S&R Farms (Whitewater, Wis.) to University of Wisconsin—Madison Poultry Research Laboratory. Hens were individually housed in cages with raised bottom floors for at least four weeks before being assigned to an Example, and were 26- to 60-weeks of age at the beginning of experiments. Hens were fed, ad libitum, a standard corn-soybean meal based laying hen diet formulated to meet nutritional requirements. Housing was maintained under an automated lighting schedule with 16:8-h light-dark cycle. All procedures involving animals were approved by Animal Care Committee at University of Wisconsin, Madison.
The antigen selected for comparing the antibody response of hens was a 13 kDa soluble protein antigen, phospholipase A2 (PLA2) purified from porcine pancreas (Novozyme, Bagsvaerd, Denmark; greater than 90% purity based on SDS-PAGE). PLA2 was used because of its commercial relevance, and its previous use as a model antigen for studying hen antibody response (Trott, et al., 2008, “Additions of killed whole cell bacteria preparations to Freund complete adjuvant alter laying hen antibody response to soluble protein antigen,” Poult. Sci., 87(5):912-917). Hens were immunized according to methods described by Trott, et al. (2008). The primary immunization for each hen was a water-in-oil emulsion (50:50) that consisted of 3 mg PLA2 dissolved in 0.5 mL phosphate buffer saline (PBS), and emulsified with 0.5 mL of Freund Complete Adjuvant (FCA; DIFCO, Sparks, Md.). Seven days after the primary immunization, each hen received a booster injection containing 3 mg PLA2 dissolved in 0.5 mL PBS and emulsified with Freund Incomplete Adjuvant (FIA; DIFCO). All injections (primary and booster) were administered i.m. into each breast and thigh of hen (1 ml/hen at 0.25 mL/injection site). In all experiments, immunization of hens (primary and booster) occurred at approximately 10 A.M. to eliminate the potential confounding effect of endogenous CORT levels fluctuating due to circadian rhythms.
Based on previous experimentation (Trott et al., 2008; Schade et al., 2001, “Chicken egg yolk antibodies: Production and application,” Springer, Heidelberg, Germany) week three after primary immunization represented peak antibody titer in egg yolk; therefore, eggs were collected once per week beginning on week three and continuing until week eight or ten for repeated testing of anti-PLA2 antibody content using an ELISA (Trott, et al., 2008).
Anti-PLA2 antibody content of egg yolk and serum samples were measured by an ELISA (Trott, et al., 2008). A 96-well Nunc-Immuno Plate with MaxiSorp surface (Thermo Fischer Scientific, Waltham, Mass.) was coated overnight (100 μl per well) with PLA2 (Sigma Aldrich, St. Louis, Mo.) at a concentration of 10 μg/ml in 50 mM sodium bicarbonate. After washing, the plate was blocked (175 μl per well) for at least 1 hour with PBS containing 1% albumin from bovine serum albumin (BSA; Sigma Aldrich). Egg antibody was water-extracted from liquid egg yolk samples. Liquid egg yolk samples […] were pipetted with a positive displacement pipette (Rainin, Oakland, Calif.) and extracted overnight with 1.8 ml acidified PBS (pH 5). The extraction mixture was centrifuged at 1,500×g for 10 minutes, and the supernate was further diluted to 1:16,000 with PBS containing 1% BSA (pH 7). Serum samples were diluted 1:16,000 in PBS containing 1% BSA. In addition to the weekly egg yolk or serum samples, an ‘in-lab standard’ was applied to each ELISA plate. The standard applied to each plate consisted of a 2-fold serial dilution from 1:2,000 to 1:64,000 of water-extracted egg yolks from hens immunized against PLA2 in a previous trial. After coating, blocking, and washing the plate, duplicate samples and ‘in-lab standard’ (100 μl/well) were incubated for 1 hour on the plate followed by washing (6×). […]

The next series relates to laying hens. The settings on record: cited from earlier work.
The test system of the next series is chicken. To be noted: feeding CORT 20-80 mg/kg diet; cited from earlier work.
The subject of series [3] is Single Comb White Leghorn hens. As to the kind of experiment: Body weight change (% initial BW). It is filed as in vivo. As for the experimental part:
Measurement of body weight and egg production. […] Initial body weight of adult laying hens, 26- to 60-weeks of age, was reported when measured at the beginning of experiments. Data were expressed as a percentage of initial body weight (% initial BW) to determine effects of CORT on change in body weight. Eggs produced were recorded daily for each hen. Laying frequency (or egg production) of each hen during each 7 day period measured, was obtained by dividing the total number of eggs laid by 7.

`C[C@]12C[C@H](O)[C@H]3[C@@H](CCC4=CC(=O)CC[C@@]43C)[C@@H]1CC[C@@H]2C(=O)CO` [CORT, corticosterone]: the “mouse T-dependent antibody response to sheep erythrocytes” value in the series on mice was “increased”. Also, the “plasma CORT concentrations” value in series [1] is reported as “significant increase”. The “difference in antibody titer of egg yolks vs control-fed hens” value in series [2] (Example 2: CORT 30 mg/kg diet for 2 days beginning on day 1 before primary immunization, weeks 3 to 6, p=0.24) is given as “no difference”; in series [2] (Example 3: CORT for 5 days beginning on day 7 before primary immunization, weeks 3 to 5, p=0.96), “no difference”. In addition, the “antibody titer of egg yolks (Log2 titer)” value was 15.52 Log2 titer in series [2] (Example 2: CORT 30 mg/kg diet for 2 days beginning on day 1 before primary immunization, weeks 3 to 6 after primary immunization); 17.02 Log2 titer in series [2] (Example 3: CORT 30 mg/kg diet for 5 days beginning on day 7 before primary immunization, weeks 3 to 5 after primary immunization); 16.50 Log2 titer in series [2] (Example 5: dietary CORT for 9 days beginning on day 1 before primary immunization, weeks 3 to 10 after primary immunization). The “egg yolk antibody titer (Log2 titer)” value was found to be 17.32 Log2 titer in series [2] (Example 4: CORT 30 mg/kg diet for 6 days beginning on day 1 before primary immunization, weeks 3 to 5) and 17.37 Log2 titer in series [2] (Example 4: CORT 6 days, entire study period weeks 3 to 9). Besides, the “fold higher egg yolk antibody titer vs control-fed hens” value in series [2] (Example 4: CORT 6 days, weeks 3 to 5, p=0.006) came to 3.1 fold. In series [2] (Example 4: CORT 6 days, weeks 3 to 9, p=0.032), the “fold increase in antibody titer of egg yolks vs control hens” value was 1.8 fold. In addition, the “fold higher antibody titer of egg yolks vs control-fed hens” value in series [2] (Example 5: CORT 9 days, weeks 3 to 10, p=0.00001) was determined as 3.0 fold. In addition, in the series with laying hens (after 1 week of dietary CORT 20-40 mg/kg diet), the egg production entry is reported as “completely suppressed”. In the series on laying hens (dietary CORT 30 mg/kg diet for 1 week), the “effect on egg production in laying hens” value is listed as “negatively affect”. In the series with laying hens (dietary CORT 20-40 mg/kg diet for 1 week), the “additional time out of production after removal of CORT” value is 9 to 12 days. In addition, the “number of circulating lymphocytes in chicken blood” value in the series with chicken is “markedly decreased”. Moreover, the “effect of CORT on body weight (% initial BW) vs control-fed hens” value in series [3] (Example 3: CORT 5 days, p=0.27) was “no effect”. Further, the “body weight higher than initial body weight” value in series [3] (Example 3: CORT 5 days, week 1 after diet administration) is 11.4%; in series [3] (Example 3: CORT 5 days, week 2), 10.5%; in series [3] (Example 4: CORT 6 days, weeks 1 to 3 after diet administration) it was 13.3%. In addition, in series [3] (Example 3: CORT 5 days, week 5 after diet administration, p=0.57), the “body weight vs initial body weight” value is listed as “not different from initial body weight”.
